Tests used:
[1] = test system: sensitized Brown Norway rats; test: Allergen-induced lung inflammation (inflammatory cells in lung lavage fluid); format: in vivo, rat; settings: 5 mg/kg/day for 4 days, p.o.; OA challenge; lavage 48 hours after challenge
From the text: The ability of a compound to inhibit the allergen-induced accumulation of inflammatory cells such as eosinophils and neutrophils in the lavage fluid obtained from sensitized animals is indicative of anti-asthma activity. In particular, the model system is useful in the evaluation of the effects of compounds in the treatment of the late-phase response of asthma, when lung inflammation and the second phase of bronchoconstriction is apparent.
Male Brown Norway rats (200-250 g) are sensitized to ovalbumin by an intraperitoneal injection of 1 mg ovalbumin and 100 mg aluminum hydroxide in 1 ml of sterile saline. After 21 days the animals are found to be sensitized to ovalbumin. Animals are treated with drug or vehicle (0.3 ml PEG-200) once daily for 4 days by oral gavage. The animals are challenged by exposure, for a period of 60 minutes, to nebulized solution of 0.5% ovalbumin in saline generated using a Devillbis nebulizer. The final dose of drug is given 24 hours after challenge. Forty eight hours after challenge the animals are euthanized by an overdose of halothane and the lungs are lavaged with 7 x 2 mLs of sterile saline (room temperature). The recovered lavage fluid is placed on ice and centrifuged at 1200 rpm to separate the cells from the supernatant. The cells are exposed briefly to Tris/ammonium chloride, pH 7.3 to remove any red cells, and washed in phosphate buffered saline. Cytospins of each cell sample are prepared and stained for the presence of cells containing peroxidase and for the determination of the numbers of eosinophils and neutrophils. The numbers of inflammatory cells are expressed as a percentage of the total number of cells recovered in the lavage fluid.

[2] = test system: isolated trachea; test: Allergen (OA)-induced contraction of isolated trachea from sensitized guinea pigs; design: species or system guinea pig
Method: The effects of a number of the compounds described herein on allergen-induced bronchoconstriction were evaluated for anti-asthma activity. The ability of a compound to inhibit allergen-induced decreases in lung function in sensitized guinea pigs in response to antigen-challenge is indicative of anti-asthma activity. In particular, the model system is useful in the evaluation of the potential effects of a compound in the treatment of the early asthmatic reaction (EAR) when severe bronchoconstriction occurs.
Guinea pigs were exposed to a nebulized solution of 1% ovalbumin (OA) in saline for 15 min. […] Tracheal rings were prepared and bathed in Krebs-Henseleit solution at 37°C and aerated with 5% CO2 in O2. Tissues were suspended under a resting tension of 2 g and isometric contractions were measured using force-displacement transducers coupled to a polygraph. Tissues were incubated with each compound or 0.1% dimethylsulfoxide (as a control) for 20 min, after which increasing concentrations of OA (0.001 - 100 µg/ml) were added to the tissue. After the final concentration of OA was added and the response was recorded, the tissues were stimulated with 100 µM methacholine which caused maximum contraction of the trachea. The magnitude of the contraction induced by OA in the presence of each compound was expressed as a percentage of the maximum contraction obtained using methacholine (100 µM).

[3] = test system: sensitized guinea pigs; test: Allergen-induced changes in lung resistance and lung compliance in vivo; design: species or system guinea pig; settings: 50 µg/kg inhalation
Method: In addition, the effect of compounds of the invention on lung function in vivo was determined in sensitized animals as follows: • Female Cam Hartley guinea pigs (350-400 g) are sensitized to ovalbumin by exposure of the guinea pigs to a nebulized solution of 1% ovalbumin in saline for 15 minutes. After 10-12 days, the animals are found to be acutely sensitized to the allergen (ovalbumin). Animals are treated by oral gavage, under light halothane anesthesia, with 300 µl polyethyleneglycol-200 (PEG) or 5 mg/Kg of test compound in 300 µl of PEG. Animals are treated once daily for 4 days with the final dose administered 2 hours prior to allergen challenge. Alternatively, compounds were delivered by inhalation, using a Hudson nebulizer driven by 6psi oxygen, providing a single dose of 50 µg/Kg 20 min prior to challenge.
An animal is anaesthetized using ketamine ([…]; i.p.) and xylazine (10 mg/Kg; i.p.) and 1% halothane during the surgical procedure. A tracheostomy is performed and a water-filled esophageal cannula is inserted prior to positioning the animal in a body plethysmograph. The tracheal cannula is attached to a fixed tracheal cannula in the plethysmograph. Cardiac function is monitored using electrocardiography. The animal is paralyzed using pancuronium bromide (0.8 mg/Kg; i.m.) and ventilated with 3 ml tidal breaths using a Harvard small animal ventilator, at a frequency of 60 breaths per minute. Pulmonary resistance and dynamic lung compliance data are obtained from volume, flow and transpulmonary pressure signals using multipoint analysis.
Pulmonary function is continually monitored throughout the experiment and measurements of lung resistance and lung compliance are made at various time-points (e.g., 0, 1, 2, 3, 4, 5, 10, 20 and 30 min) following antigen challenge. Data is collected on a computer-linked physiological measurement system using DIREC Physiological recording software and analyzed using ANADAT software designed for lung mechanics measurements. This software was obtained from RHT-InfoDat Inc., Montreal, Quebec, Canada.
Once baseline resistance and compliance measurements are obtained, the animal is challenged with 6 breaths of saline. After 10 minutes, during which time no alterations in lung function should occur, the animal is challenged with 6 breaths of 2 or 3% ovalbumin in saline (as the antigen stimulus). Saline and antigen are delivered in each breath using a Hudson nebulizer.

[4] = test system: Ascaris suum sensitized sheep; test: Allergic sheep model of asthma (specific lung resistance, hyperresponsiveness to carbachol); format: in vivo; settings: 400 µg/kg 30 min prior to and 4 hrs after challenge, inhalation; -0.5 hr
Method: The model is conscious, where the animals are breathing spontaneously, allowing measurement of airways bronchoconstriction and acute airway hyperresponsiveness.
Sheep which were naturally sensitized to Ascaris suum (30-40 Kg) were intubated with an endotracheal tube and a balloon catheter, positioned in the lower esophagus. Pleural pressure was estimated with the esophageal catheter, while later pressure was measured with a side-hole catheter advanced through and positioned distal to the tip of the endotracheal tube. Transpulmonary pressure differences between the trachea and pleural pressures were measured with a differential pressure transducer catheter system.
The proximal end of the endotracheal tube was connected to a Fleisch pneumotachograph in order to measure flow changes. Pulmonary resistance (RL) was calculated from pressure measurements of transpulmonary pressure, respiratory volume (from digital integration of the flow signal) and flow by the mid-flow technique. SRL was calculated as RL·Vtg (Vtg=thoracic gas volume).
Aerosols generated using a disposable nebulizer, were directed into a T-piece connected to a Harvard respirator and the tracheal tube in series. […]
Specific lung resistance (SRL) was measured every 60 min for 8 hours after antigen challenge. Airways hyperresponsiveness to carbachol was measured 24 hours after the initial challenge.

[5] = test system: rat mast cell line (RBL-2H3); test: Antigen-induced release of hexosaminidase from passively sensitized rat mast cells; format: cell-based; settings: Table 3; each 25 µM; vs DMSO alone
Method: The anti-allergic effects of various polyhydroxylated steroids of the present invention were evaluated by measuring their effect on antigen-induced secretion of hexosaminidase from a passively sensitized rat mast cell line (RBL-2H3) and a murine mast cell line (MC/9). The ability of agents to inhibit the release of mast cell granule contents, e.g., histamine and hexosaminidase, is indicative of anti-allergy and/or anti-asthma activity.
Hexosaminidase is released from the mast cell granule along with histamine and other mediators during antigen challenge. RBL-2H3 and MC/9 cells were grown in culture and passively sensitized to dinitrophenol (DNP) using anti-human-DNP (IgE). […] Aliquots of the supernatant were removed and used to measure the amount of hexosaminidase released during challenge with the antigen. […] The effect of each compound was determined as a percentage of the antigen-induced response (minus background release) obtained in the presence of DMSO alone, as set forth in Tables 2 and 3. These values were used to determine the degrees of inhibition of antigen-induced hexosaminidase release from the cells.

[6] = test system: rabbit platelets; test: Inhibition of PAF-induced aggregation of rabbit platelets; format: cell-based; settings: 80 µM compound, 5 min preincubation; PAF-induced aggregation (title: 0.1 nM PAF) vs DMSO alone
Method: The assay system used to evaluate the ability of compounds to inhibit the aggregation of platelets in response to exogenous stimuli is indicative of anti-thrombotic or thrombolytic activity.
Platelets were isolated from rabbit blood and prepared at a density of 2.4 x 10^8 cells/ml in Tyrodes buffer (pH 7.2) containing Ca^2+. Platelets were incubated with each compound for 5 min at 37°C prior to stimulation. Platelets were stimulated with 1 nM platelet activating factor (PAF; EC75) in the presence of each of the compounds and aggregation was monitored for 5 min. Compounds were solubilized in dimethylsulfoxide (DMSO) and aggregation was measured as a percentage of the response to 1 nM PAF obtained in the presence of the appropriate concentration of DMSO. The degree of inhibition caused by each sample was calculated using the control response in the presence of DMSO equal to 100%.

Q: For “3α,6α,7β-trihydroxy-17(20)-pregnene [Compound 330]”, which “Percentage Total Cells Recovered in Lavage Fluid: Cells Stained Positive for Peroxidase” value [1] is on record?
A: The value was 5.65 ± 2.44 %.

Q: What about the “Percentage Total Cells Recovered in Lavage Fluid: Eosinophils” value [1] of the same substance?
A: Its value is 1.98 ± 0.78 %.

Q: What about the “Percentage Total Cells Recovered in Lavage Fluid: Neutrophils” value [1] of the same substance?
A: Its value is 6.16 ± 4.54%.

Q: And the “percentage contraction compared to 100µM methacholine (100%)” value (shortened to “percentage contraction … (100%)”) ([2]; Study 3, 30 µM compound, 0.001 µg/ml OA)?
A: Its value is 0%.

Q: And the “percentage contraction … (100%)” value ([2]; Study 3, 30 µM compound, 0.01 µg/ml OA)?
A: Its value is 1.90%.

Q: What about the “percentage contraction … (100%)” value ([2]; Study 3, 30 µM compound, 0.1 µg/ml OA) of the same substance?
A: Its value is 9.00%.

Q: What about the “percentage contraction … (100%)” value ([2]; Study 3, 30 µM compound, 1 µg/ml OA) of the same substance?
A: The value was 17.5%.

Q: What about the “percentage contraction … (100%)” value ([2]; Study 3, 30 µM compound, 10 µg/ml OA) of the same substance?
A: Its value is 26.0%.

Q: And the “percentage contraction … (100%)” value ([2]; Study 3, 30 µM compound, 100 µg/ml OA)?
A: Its value is 30.0%.

Q: And the “Lung Compliance” value ([3]; 1 min after challenge)?
A: Its value is 0.349±0.059 ml/cm H2O.

Q: What about the “Lung Resistance” value ([3]; 1 min after challenge) of the same substance?
A: Its value is 0.382±0.033 cm H2O/ml/sec.

Q: And the “Lung Compliance” value ([3]; 2 min after challenge)?
A: Its value is 0.213±0.046 ml/cm H2O.

Q: And the “Lung Resistance” value ([3]; 2 min after challenge)?
A: The value was 0.420±0.044 cm H2O/ml/sec.

Q: And the “Lung Compliance” value ([3]; 3 min after challenge)?
A: Its value is 0.176±0.045 ml/cm H2O.

Q: And the “Lung Resistance” value ([3]; 3 min after challenge)?
A: The value was 0.420±0.051 cm H2O/ml/sec.

Q: What about the “Lung Compliance” value ([3]; 4 min after challenge) of the same substance?
A: The value was 0.145±0.046 ml/cm H2O.

Q: And the “Lung Resistance” value ([3]; 4 min after challenge)?
A: The value was 0.455±0.047 cm H2O/ml/sec.

Q: What about the “Lung Compliance” value ([3]; 5 min after challenge) of the same substance?
A: The value was 0.146±0.031 ml/cm H2O.

Q: What about the “Lung Resistance” value ([3]; 5 min after challenge) of the same substance?
A: Its value is 0.446±0.124 cm H2O/ml/sec.

Q: What about the “Lung Compliance” value ([3]; 10 min after challenge) of the same substance?
A: Its value is 0.138±0.022 ml/cm H2O.

Q: And the “Lung Resistance” value ([3]; 10 min after challenge)?
A: The value was 0.436±0.036 cm H2O/ml/sec.

Q: And the “Lung Compliance” value ([3]; 20 min after challenge)?
A: Its value is 0.193±0.054 ml/cm H2O.

Q: What about the “Lung Resistance” value ([3]; 20 min after challenge) of the same substance?
A: The value was 0.413±0.076 cm H2O/ml/sec.

Q: And the “Lung Compliance” value ([3]; 30 min after challenge)?
A: The value was 0.181±0.046 ml/cm H2O.

Q: What about the “Lung Resistance” value ([3]; 30 min after challenge) of the same substance?
A: Its value is 0.412±0.072 cm H2O/ml/sec.

Q: And the “Lung Compliance” value ([3]; Baseline)?
A: Its value is 0.463±0.129 ml/cm H2O.

Q: What about the “Lung Resistance” value ([3]; Baseline) of the same substance?
A: The value was 0.300±0.025 cm H2O/ml/sec.

Q: What about the “Lung Compliance” value ([3]; OA/10 s) of the same substance?
A: Its value is 0.565±0.062 ml/cm H2O.

Q: And the “Lung Resistance” value ([3]; OA/10 s)?
A: The value was 0.288±0.036 cm H2O/ml/sec.

Q: What about the “Specific Lung Resistance (% Baseline)” value [4] of the same substance?
A: The value was 0±4 % Baseline.

Q: For “3β, 4α, 6α, 7β, 17β-pentahydroxy-5α-androstane 6,7-acetonide [Compound 246]”, which “percentage contraction … (100%)” value ([2]; Study 1, 20 µM compound, 0.001 µg/ml OA) is on record?
A: The value was 2.6%.

Q: What about the “percentage contraction … (100%)” value ([2]; Study 1, 20 µM compound, 0.003 µg/ml OA) of the same substance?
A: The value was 4.0%.

Q: And the “percentage contraction … (100%)” value ([2]; Study 1, 20 µM compound, 0.01 µg/ml OA)?
A: The value was 6.5%.

Q: What about the “percentage contraction … (100%)” value ([2]; Study 1, 20 µM compound, 0.03 µg/ml OA) of the same substance?
A: Its value is 9.7%.

Q: And the “percentage contraction … (100%)” value ([2]; Study 1, 20 µM compound, 0.1 µg/ml OA)?
A: The value was 12.2%.

Q: What about the “percentage contraction … (100%)” value ([2]; Study 1, 20 µM compound, 0.3 µg/ml OA) of the same substance?
A: The value was 15.3%.

Q: And the “percentage contraction … (100%)” value ([2]; Study 1, 20 µM compound, 1.0 µg/ml OA)?
A: The value was 20.0%.

Q: What about the “percentage contraction … (100%)” value ([2]; Study 1, 20 µM compound, 3.0 µg/ml OA) of the same substance?
A: The value was 21.0%.

Q: What about the “percentage contraction … (100%)” value ([2]; Study 1, 20 µM compound, 10.0 µg/ml OA) of the same substance?
A: Its value is 23.0%.

Q: What about the “percentage contraction … (100%)” value ([2]; Study 1, 20 µM compound, 30.0 µg/ml OA) of the same substance?
A: Its value is 22.0%.

Q: What about the “Percentage Inhibition (mean) RBL-2H3 Cells” value [5] of the same substance?
A: Its value is 29.4%.

Q: And the “%Inhibition at 80 µM” value [6]?
A: The value was 21%.

From patent EP1304333A2, “6,7-Oxygenated steroids and uses related thereto” (Inflazyme Pharmaceuticals, Ltd., priority 1996, dated 1998)
